This note sets out measurements from PubChem BioAssay (NCI).

Molecules are shown by their SMILES. Values joined by “and” are separate entries in the source; they are usually repeats but may differ in a detail not shown here. Equal values may be shown once.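 Briefly, cells in 96-well plates were exposed to five compound concentrations for 48 h, and endpoints were estimated by linear interpolation. The concentration for 50% growth inhibition is given as GI50. TGI denotes the concentration required for complete inhibition of growth.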

What all share (test): NCI tumour cell line growth inhibition, 48 h
The subject of assay [1] is 786-0 renal.
The test system of assay [2] is A549 NSCLC.
Assay [3] relates to HCC-2998 colon.
The test system of assay [4] is HCT-15 colon.
The subject of assay [5] is HOP-92 NSCLC.
Assay [6] has as its system HS 578T breast.
For assay [7], the system named is OVCAR-3 ovarian.
The subject of assay [8] is OVCAR-8 ovarian.
The test system of assay [9] is SW-620 colon.
For assay [10], the system named is UO-31 renal.

In the case of `Cc1ccc2c(c1)C(=O)c1c-2n(CCCBr)c(=O)c2cc([N+](=O)[O-])ccc12`, the GI50 in assay [1] was 57.5 µM; in assay [2], more than 100 µM; in assay [3] it was 11.7 µM; in [4], 97.8 µM; in assay [5], 29.4 µM; in assay [6], more than 100 µM. In addition, the GI50 in assay [7] was 71.1 µM; in assay [8], more than 100 µM; in assay [9], 51.6 µM; in [10], 27.5 µM. Besides, the TGI in [1] was more than 100 µM; in assay [2], more than 100 µM; in assay [3] it was 77.6 µM; in [4], more than 100 µM; in assay [5], more than 100 µM; in assay [6], more than 100 µM. The TGI in [7], in assay [8], in assay [9] and in [10] was more than 100 µM throughout.
On to `Nc1c(C(=O)Nc2ccccc2)sc2nc3c(cc12)CN(Cc1ccccc1)CC3`, for which the GI50 was 13 µM in assay [1]; 13.9 µM in assay [2]; 76.1 µM in assay [3]; 24.7 µM in [4]; 2.48 µM in assay [5]; 2.07 µM in [6]. For the same compound, the GI50 was 11.4 µM in [7], 16.8 µM in [8], 20.8 µM in assay [9] and 6.14 µM in [10]. Also, the TGI in assay [1] is more than 100 µM; in assay [2], more than 100 µM; in [3] it was more than 100 µM; in [4], more than 100 µM; in assay [5], 20.4 µM; in [6], 7.55 µM. For the same compound, the TGI in assay [7], in assay [8], in assay [9] and in [10] was more than 100 µM each time.
With `CC12CC(OC(=O)[C@]1(C)O)[C@@H]([C@]1(O)CC[C@H]3[C@@H]4C[C@H]5O[C@]56[C@@H](O)C=CC(=O)[C@]6(C)[C@H]4CC[C@@]31C)C2` (stereo partly drawn), the TGI was 10.1 µM in [1]; more than 100 µM in assay [2]; 36.4 µM in [3]; 25.3 µM in [4]; 8.08 µM in assay [5]; 35.7 µM in [6]. Also, the TGI in assay [7] turned out to be 7.72 µM; in [8], 13.3 µM; in assay [9], 12.4 µM; in [10], 16.8 µM.
Turning to `CC(C)c1ccc(Nc2nccc(-c3cnn4ncccc34)n2)cc1`, the GI50 in assay [1] is 0.801 µM; in assay [2] it was 0.6 µM; in assay [3] it was 0.635 µM; in assay [4], 0.614 µM; in [5] it was 0.503 µM; in assay [6], 0.623 µM. Moreover, the GI50 in assay [7] is 0.516 µM; in assay [8], 0.555 µM; in [9], 0.516 µM; in [10], 0.804 µM. In addition, the TGI in [1] is 4.88 µM; in [2], 3.65 µM; in [3], more than 10.2 µM; in assay [4] it was more than 25 µM; in assay [5] it was 1.59 µM; in assay [6], 5.16 µM. Further, the TGI in [7] was more than 6.26 µM; in [8], 3.74 µM; in assay [9], 9.07 µM; in assay [10] it was more than 9.35 µM.
With `CS(=O)(=O)Nc1ccc(N=Cc2c(O)[nH]c3ccccc23)cc1`, the GI50 in [1], in [2], in assay [3], in assay [4], in [5] and in [6] was more than 25 µM each time. Besides, the GI50 in assay [7] was more than 25 µM; in assay [8] it was more than 25 µM; in [9], more than 25 µM; in [10], more than 8.56 µM. Also, the TGI in assay [1], in assay [2], in [3], in assay [4], in assay [5] and in assay [6] was more than 25 µM throughout. The TGI in assay [7], in assay [8], in [9] and in assay [10] was more than 25 µM each time.
`Cc1cn2c(/C=N/Nc3ccccn3)c(-c3ccc(Cl)c([N+](=O)[O-])c3)nc2s1`: the GI50 is 18.5 µM in [1]; 8.7 µM in assay [2]; more than 50 µM in assay [3]; 16 µM in assay [4]; 12.9 µM in assay [5]; 12 µM in assay [6]. In addition, the GI50 in assay [7] is 11 µM; in assay [8], 8.96 µM; in assay [9] it was 44.1 µM; in assay [10] it was 13.1 µM. Further, the TGI in assay [1] was more than 50 µM; in assay [2], 21.9 µM; in assay [3] it was more than 50 µM; in assay [4] it was more than 50 µM; in [5], more than 50 µM; in assay [6], 39.4 µM. The TGI in [7] is 27.3 µM; in assay [8], 19.8 µM; in [9] it was more than 50 µM; in assay [10] it was more than 50 µM.
For `CCCCN(CCCC)c1ccc(C(=NC(C)CCCN(CC)CC)c2ccc(N(C)C)cc2)cc1` (stereo not drawn), the GI50 in [1] is 0.705 µM; in [2], 1.01 µM; in assay [3] it was 0.922 µM; in [4], 0.767 µM; in [5] it was 0.609 µM; in assay [6], 0.884 µM. In addition, the GI50 was 0.846 µM in [7], 0.99 µM in assay [8], 0.793 µM in [9] and 0.713 µM in [10]. Further, the TGI in assay [1] stood at 1.43 µM; in [2] it was 2.57 µM; in assay [3], 1.77 µM; in [4], 1.56 µM; in assay [5], 1.71 µM; in assay [6], 2.05 µM. Besides, the TGI turned out to be 1.81 µM in assay [7], 2.09 µM in assay [8], 1.68 µM in assay [9] and 1.42 µM in assay [10].
As to `Nc1ccc(-c2ccc(N)cc2I)c(I)c1`, the GI50 is 17.3 µM in [1]; 29.9 µM in assay [2]; 19.1 µM in assay [3]; 13.7 µM in assay [4]; 11.2 µM in [5]; 17.1 µM in assay [6]. Moreover, the GI50 in assay [7] was 16.6 µM; in assay [8], 27.1 µM; in assay [9], 19.4 µM; in assay [10] it was 10.6 µM. For the same compound, the TGI in assay [1] is 36.9 µM; in assay [2], more than 100 µM; in assay [3] it was 42.2 µM; in assay [4] it was 34.1 µM; in assay [5], 37 µM; in assay [6], 88.3 µM. The TGI in assay [7] stood at 35.3 µM; in assay [8], 94.7 µM; in assay [9] it was 81.7 µM; in [10], 26 µM.
For `O=C(OCCBr)c1ccc(Cl)c([N+](=O)[O-])c1`, the GI50 in assay [1] was 18.6 µM; in [2], 17.7 µM; in assay [3], 1.91 µM; in [4] it was 16.3 µM; in assay [5] it was 16 µM; in assay [6], 3.13 µM. Further, the GI50 in [7] is 2.69 µM; in assay [8], 17.3 µM; in assay [9], 14.6 µM; in assay [10] it was 2.72 µM. The TGI in assay [1] was 34.1 µM; in assay [2], 35.4 µM; in [3], 3.67 µM; in assay [4], 32.4 µM; in [5], 33.2 µM; in [6], more than 26.4 µM. Further, the TGI is 6.43 µM in assay [7], 35.2 µM in assay [8], 30.2 µM in assay [9] and 7.85 µM in assay [10].
Take `Nc1nc(N)c(N=O)c(OCC2CCCCC2)n1`: the GI50 was 20.9 µM in assay [1]; 15 µM in assay [2]; 22.5 µM in assay [3]; 2.25 µM in [5]; 2.81 µM in assay [6]; 7.37 µM in assay [7]. For the same compound, the GI50 in assay [9] was 20.4 µM; in assay [10], 3.24 µM. The TGI in assay [1] was > 100 µM and 84.1 µM; in [2], > 100 µM and 79.7 µM; in assay [3] it was more than 100 µM; in assay [4] it was more than 100 µM; in [5] it was 8.41 µM and 59.2 µM; in assay [6], 21 µM and 46.1 µM. Also, the TGI was 64.7 µM and 61.5 µM in assay [7]; more than 100 µM in assay [8]; more than 100 µM in assay [9]; 39.1 µM and 39.7 µM in assay [10].
Regarding `Nc1n[nH]c2ccc([C@@H]3Nc4ccc5[nH]ncc5c4[C@H]4C5C=CC(C5)[C@@H]34)cc12` (stereo partly drawn), the GI50 in assay [1] was 0.6 µM; in assay [2], 0.444 µM; in assay [3] it was 0.378 µM; in [4], 0.316 µM; in assay [5], 1.46 µM; in assay [6] it was 0.27 µM. Further, the GI50 in assay [7] is 0.291 µM; in [8] it was 0.563 µM; in assay [9] it was 0.367 µM; in assay [10] it was 0.769 µM. In addition, the TGI is 16.8 µM in assay [1]; more than 85.2 µM in assay [2]; 12.1 µM in assay [3]; 13.5 µM in assay [4]; 10.7 µM in assay [5]; 21.2 µM in assay [6]. The TGI is 4.23 µM in assay [7], more than 89.5 µM in assay [8], 40.4 µM in assay [9] and 31.7 µM in assay [10].
In the case of `CC1(C)CC[C@]2(C(=O)N3CCOCC3)CC[C@]3(C)C(=CC[C@@H]4[C@@]5(C)C/C(=C/c6ccncc6)C(=O)C(C)(C)[C@@H]5CC[C@]43C)[C@@H]2C1`, the GI50 was 1.66 µM in [1]; 1.22 µM in assay [2]; 1.66 µM in assay [3]; 0.939 µM in assay [4]; 0.0347 µM in [5]; 2.56 µM in assay [6]. For the same compound, the GI50 in assay [7] was 2.06 µM; in assay [8], 3.52 µM; in assay [9] it was 2.29 µM; in assay [10], 0.893 µM. For the same compound, the TGI in [1] was 12.4 µM; in [2], more than 100 µM; in assay [3] it was 7.82 µM; in [4], 11 µM; in assay [5] it was 11.6 µM; in assay [6], more than 100 µM. In addition, the TGI was more than 100 µM in assay [7], more than 100 µM in [8], more than 100 µM in assay [9] and 14.2 µM in assay [10].
With `CSc1ccccc1C#Cc1ccccc1C#CCCCCO`, the GI50 was 11 µM in assay [1]; 12.6 µM in assay [2]; 10 µM in assay [3]; 3.85 µM in assay [4]; 9.76 µM in [5]; 7.62 µM in assay [6]. The GI50 in assay [7] is 14.7 µM; in [8], 18.7 µM; in [9], 11 µM; in [10] it was 12.6 µM. For the same compound, the TGI in [1] amounted to 26.6 µM; in assay [2] it was 27.1 µM; in assay [3] it was 22.9 µM; in assay [4] it was 15.9 µM; in assay [5], 25.1 µM; in [6] it was 32.3 µM. For the same compound, the TGI is 28.7 µM in assay [7], 41.7 µM in [8], 26.2 µM in [9] and 25.4 µM in [10].
Turning to `O=C(CN1CCN(c2ccccc2)CC1)N1CCN(c2nnc(-c3ccc(Cl)cc3)c(-c3ccc(Cl)cc3)n2)CC1`, the GI50 is 11.6 µM in assay [1]; 9.86 µM in assay [2]; 16.9 µM in assay [3]; 6.35 µM in assay [4]; 12.1 µM in assay [5]; 16.5 µM in [6]. Also, the GI50 in assay [7] is 7.24 µM; in assay [8] it was 16.3 µM; in [9] it was 16.1 µM; in assay [10] it was 2.04 µM. Moreover, the TGI was 53 µM in assay [1]; more than 100 µM in assay [2]; more than 100 µM in assay [3]; more than 100 µM in [4]; 27.9 µM in assay [5]; more than 100 µM in [6]. Also, the TGI in assay [7] is 41.3 µM; in assay [8], more than 100 µM; in [9] it was more than 100 µM; in [10], more than 100 µM.
Take `COc1ccc(/C=C2\CCC(CN(C)C)C2=O)cc1OC` (stereo not drawn): the TGI was 6.42 µM in assay [1]; 37.4 µM in assay [2]; 14.5 µM in [3]; 8.81 µM in assay [4]; 21 µM in [5]; more than 100 µM in assay [6]. In addition, the TGI in [7] came to 15.8 µM; in assay [8], 8.25 µM; in assay [9], 4.44 µM; in assay [10] it was 24.6 µM.
